How the values were obtained:
SIK3 = target: T1, SIK3 (Homo sapiens, UniProt Q9Y2K2); test: Kinase assay, IC50 curve; assay type: biochemical; conditions: read-out: IC50 against SIK3
T1 construct: GST; made in house; host or cells: HEK293 cells

[1] = test system: RAW264.7 macrophages expressing HA-SIK2[T96Q]; test: IL-10 and Nurr77 mRNA in macrophages expressing drug-resistant SIK2; assay type: cell-based; conditions: cells expressing drug-resistant SIK2[T96Q]; drug 1 h, LPS 1 h
Procedure: Primary macrophages were generated by differentiating bone marrow from 6- to 12-week-old C57BL/6 mice for 7 days in Dulbecco's modified Eagle's medium (DMEM) supplemented with 5 ng/ml recombinant M-CSF (R&D systems), 2 mM glutamine, 10% FBS, penicillin and streptomycin. Bone-marrow-derived macrophages were differentiated on non-tissue-culture-treated plastic, harvested and replated at a density of 100000 cells/cm^2 per 0.1 ml on tissue culture-treated plastic in fresh medium before stimulation on day 8. RAW264.7 cells were cultured in DMEM containing 10% FBS, 2 mM glutamine and penicillin and streptomycin. […] Cells were treated for 1 h with or without inhibitors and then stimulated for up to 24 h with either 1 μg/ml Pam3CSK4 or 100 ng/ml LPS.
(§1) mRNA was extracted from cells using the MicroElute Total RNA kit following the manufacturers’ instructions (Omega Bio-Tek). cDNA was generated from 0.5 μg of total RNA using the iScript cDNA synthesis kit and quantified by quantitative real-time PCR (qPCR) using the SsoFast EvaGreen Supermix on a CFX384 real-time system (Bio-Rad Laboratories). The relative expression of each gene was calculated from CT values using the Pfaffl method and was normalized against the mRNA levels of housekeeping genes including 18S RNA and GAPDH.

[2] = test system: Bone-marrow-derived macrophages; test: Markers of alternatively activated macrophages (qPCR); assay type: cell-based, mouse; conditions: 3 μM bosutinib or 0.3 μM dasatinib 1 h, then LPS
Procedure: as §1, with “GAPDH. Results are reported relative to untreated control cells, which were set to 1.” for “GAPDH.”

BRK = BRK (Homo sapiens, UniProt Q13882); test: Kinase profiling; assay type: biochemical
Chain of BRK (Q13882 whole entry): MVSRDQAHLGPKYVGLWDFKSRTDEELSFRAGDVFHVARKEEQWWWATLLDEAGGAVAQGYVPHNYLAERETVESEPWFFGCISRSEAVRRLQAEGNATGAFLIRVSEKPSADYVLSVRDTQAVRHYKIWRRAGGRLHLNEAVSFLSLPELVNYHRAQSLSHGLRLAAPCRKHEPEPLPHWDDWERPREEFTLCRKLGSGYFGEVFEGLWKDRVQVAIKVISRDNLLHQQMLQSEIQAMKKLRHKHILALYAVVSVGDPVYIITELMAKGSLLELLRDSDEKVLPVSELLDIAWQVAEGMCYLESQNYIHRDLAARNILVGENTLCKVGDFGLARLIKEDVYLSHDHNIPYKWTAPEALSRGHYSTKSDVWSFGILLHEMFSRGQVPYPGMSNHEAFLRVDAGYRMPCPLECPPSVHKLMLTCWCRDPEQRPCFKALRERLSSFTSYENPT

BTK [3] = target: T2, BTK (Homo sapiens, UniProt Q06187); test: Kinase profiling; assay type: biochemical
Target sequence in this assay (Q06187 whole entry): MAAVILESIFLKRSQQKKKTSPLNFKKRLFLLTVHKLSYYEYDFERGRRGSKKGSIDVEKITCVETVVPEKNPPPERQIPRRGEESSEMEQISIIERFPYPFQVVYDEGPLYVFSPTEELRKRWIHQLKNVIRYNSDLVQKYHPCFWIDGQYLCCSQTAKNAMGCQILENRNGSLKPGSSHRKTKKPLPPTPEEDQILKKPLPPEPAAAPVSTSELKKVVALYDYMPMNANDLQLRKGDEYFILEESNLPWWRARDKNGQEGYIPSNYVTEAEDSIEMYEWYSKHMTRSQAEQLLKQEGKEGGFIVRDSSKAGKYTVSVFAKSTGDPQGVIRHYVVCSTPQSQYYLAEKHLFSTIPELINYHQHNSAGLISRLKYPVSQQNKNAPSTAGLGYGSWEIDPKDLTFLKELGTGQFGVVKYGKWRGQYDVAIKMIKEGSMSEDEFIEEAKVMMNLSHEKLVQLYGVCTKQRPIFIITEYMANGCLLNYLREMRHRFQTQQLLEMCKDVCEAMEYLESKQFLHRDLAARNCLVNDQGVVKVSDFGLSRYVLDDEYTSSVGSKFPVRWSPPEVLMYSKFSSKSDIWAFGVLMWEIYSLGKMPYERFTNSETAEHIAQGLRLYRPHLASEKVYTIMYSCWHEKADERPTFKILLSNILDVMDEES

EPH-B2 = EPH-B2 (Homo sapiens, UniProt P29323); test: Kinase profiling; assay type: biochemical
Chain of EPH-B2 (P29323 19-1055): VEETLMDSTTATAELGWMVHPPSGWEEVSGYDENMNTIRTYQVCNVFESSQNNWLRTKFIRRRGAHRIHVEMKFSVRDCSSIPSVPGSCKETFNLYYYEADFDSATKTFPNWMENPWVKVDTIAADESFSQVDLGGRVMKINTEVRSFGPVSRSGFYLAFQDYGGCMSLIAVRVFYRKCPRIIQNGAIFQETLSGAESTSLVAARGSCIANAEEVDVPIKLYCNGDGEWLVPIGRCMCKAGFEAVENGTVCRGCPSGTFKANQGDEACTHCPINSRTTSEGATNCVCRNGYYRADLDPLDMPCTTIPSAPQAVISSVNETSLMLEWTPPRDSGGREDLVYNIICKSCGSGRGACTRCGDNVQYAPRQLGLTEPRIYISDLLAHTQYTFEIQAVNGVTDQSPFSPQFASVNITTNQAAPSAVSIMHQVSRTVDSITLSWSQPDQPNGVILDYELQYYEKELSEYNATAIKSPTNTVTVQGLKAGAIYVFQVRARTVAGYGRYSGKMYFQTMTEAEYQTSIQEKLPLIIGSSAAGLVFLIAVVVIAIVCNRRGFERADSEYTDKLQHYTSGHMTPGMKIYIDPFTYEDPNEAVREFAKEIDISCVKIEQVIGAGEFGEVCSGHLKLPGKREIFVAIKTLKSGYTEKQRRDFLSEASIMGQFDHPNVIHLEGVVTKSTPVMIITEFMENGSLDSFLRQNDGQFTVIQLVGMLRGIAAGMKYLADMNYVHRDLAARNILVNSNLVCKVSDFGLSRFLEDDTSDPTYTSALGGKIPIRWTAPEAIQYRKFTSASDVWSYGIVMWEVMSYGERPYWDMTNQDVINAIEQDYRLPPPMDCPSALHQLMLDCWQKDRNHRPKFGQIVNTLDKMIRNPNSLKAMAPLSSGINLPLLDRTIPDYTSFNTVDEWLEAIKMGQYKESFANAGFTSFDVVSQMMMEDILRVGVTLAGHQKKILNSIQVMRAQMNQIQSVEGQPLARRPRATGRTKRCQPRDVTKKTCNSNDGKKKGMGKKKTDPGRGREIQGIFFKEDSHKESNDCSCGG

EPH-B4 = EPH-B4 (Homo sapiens, UniProt P54760); test: Kinase profiling; assay type: biochemical
Chain of EPH-B4 (P54760 16-987): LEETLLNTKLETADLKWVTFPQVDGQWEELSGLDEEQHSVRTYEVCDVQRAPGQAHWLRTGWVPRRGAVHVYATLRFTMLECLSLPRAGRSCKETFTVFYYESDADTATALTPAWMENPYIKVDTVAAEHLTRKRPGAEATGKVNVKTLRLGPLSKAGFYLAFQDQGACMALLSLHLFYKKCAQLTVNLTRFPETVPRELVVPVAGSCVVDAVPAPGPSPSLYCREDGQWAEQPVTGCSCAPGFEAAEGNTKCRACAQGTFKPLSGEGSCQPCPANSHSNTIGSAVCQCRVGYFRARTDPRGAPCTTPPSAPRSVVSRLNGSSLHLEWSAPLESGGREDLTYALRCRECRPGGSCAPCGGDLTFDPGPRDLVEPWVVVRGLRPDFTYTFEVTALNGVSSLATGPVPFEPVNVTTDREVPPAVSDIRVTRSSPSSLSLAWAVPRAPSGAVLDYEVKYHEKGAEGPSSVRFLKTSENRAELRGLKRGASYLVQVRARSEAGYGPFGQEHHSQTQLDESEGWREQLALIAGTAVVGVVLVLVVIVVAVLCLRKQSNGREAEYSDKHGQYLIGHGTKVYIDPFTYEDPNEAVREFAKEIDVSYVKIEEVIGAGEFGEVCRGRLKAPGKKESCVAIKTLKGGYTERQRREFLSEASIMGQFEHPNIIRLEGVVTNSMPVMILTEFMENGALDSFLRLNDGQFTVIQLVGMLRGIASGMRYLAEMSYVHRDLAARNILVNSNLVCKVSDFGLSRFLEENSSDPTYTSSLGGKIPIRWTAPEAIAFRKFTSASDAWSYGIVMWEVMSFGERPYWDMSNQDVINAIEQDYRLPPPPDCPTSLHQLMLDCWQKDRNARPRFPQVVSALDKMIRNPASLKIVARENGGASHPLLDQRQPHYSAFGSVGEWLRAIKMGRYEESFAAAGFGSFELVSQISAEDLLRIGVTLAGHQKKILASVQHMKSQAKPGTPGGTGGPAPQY

Lck = Lck (Homo sapiens, UniProt P06239); test: Kinase profiling; assay type: biochemical
MPSK1 = MPSK1 (Homo sapiens, UniProt O75716); test: Kinase profiling; assay type: biochemical
Chain of MPSK1 (O75716 whole entry): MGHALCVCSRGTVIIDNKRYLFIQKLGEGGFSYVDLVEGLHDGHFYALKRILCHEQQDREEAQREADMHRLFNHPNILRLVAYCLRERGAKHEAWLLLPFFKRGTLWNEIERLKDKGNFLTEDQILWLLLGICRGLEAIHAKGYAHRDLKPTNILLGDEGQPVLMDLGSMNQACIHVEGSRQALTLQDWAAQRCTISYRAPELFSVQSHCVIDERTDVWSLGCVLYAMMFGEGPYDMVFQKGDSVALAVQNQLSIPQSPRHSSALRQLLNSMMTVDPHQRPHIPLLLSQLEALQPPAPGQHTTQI

PHK = PHK (Homo sapiens, UniProt Q16816); test: Kinase profiling; assay type: biochemical
PKD1 = PKD1 (Homo sapiens, UniProt Q15139); test: Kinase profiling; assay type: biochemical
PLK1 = PLK1 (Homo sapiens, UniProt P53350); test: Kinase profiling; assay type: biochemical
Chain of PLK1 (P53350 whole entry): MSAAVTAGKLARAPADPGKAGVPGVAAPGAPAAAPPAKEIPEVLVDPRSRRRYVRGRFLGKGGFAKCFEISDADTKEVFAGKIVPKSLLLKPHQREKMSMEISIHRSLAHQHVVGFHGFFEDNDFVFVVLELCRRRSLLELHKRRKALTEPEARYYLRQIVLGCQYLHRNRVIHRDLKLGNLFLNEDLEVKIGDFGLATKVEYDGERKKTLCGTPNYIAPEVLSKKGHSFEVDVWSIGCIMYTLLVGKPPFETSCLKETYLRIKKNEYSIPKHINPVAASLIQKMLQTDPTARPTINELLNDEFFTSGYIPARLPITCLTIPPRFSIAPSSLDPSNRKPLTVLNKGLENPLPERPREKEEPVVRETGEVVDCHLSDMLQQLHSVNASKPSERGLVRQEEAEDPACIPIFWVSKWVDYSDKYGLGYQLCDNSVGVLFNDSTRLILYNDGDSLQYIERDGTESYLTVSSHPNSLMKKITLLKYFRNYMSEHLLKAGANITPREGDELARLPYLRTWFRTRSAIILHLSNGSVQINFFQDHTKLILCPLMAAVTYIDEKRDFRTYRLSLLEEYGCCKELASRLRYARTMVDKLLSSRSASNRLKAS

Src = Src (Homo sapiens, UniProt P12931); test: Kinase profiling; assay type: biochemical
Chain of Src (P12931 whole entry): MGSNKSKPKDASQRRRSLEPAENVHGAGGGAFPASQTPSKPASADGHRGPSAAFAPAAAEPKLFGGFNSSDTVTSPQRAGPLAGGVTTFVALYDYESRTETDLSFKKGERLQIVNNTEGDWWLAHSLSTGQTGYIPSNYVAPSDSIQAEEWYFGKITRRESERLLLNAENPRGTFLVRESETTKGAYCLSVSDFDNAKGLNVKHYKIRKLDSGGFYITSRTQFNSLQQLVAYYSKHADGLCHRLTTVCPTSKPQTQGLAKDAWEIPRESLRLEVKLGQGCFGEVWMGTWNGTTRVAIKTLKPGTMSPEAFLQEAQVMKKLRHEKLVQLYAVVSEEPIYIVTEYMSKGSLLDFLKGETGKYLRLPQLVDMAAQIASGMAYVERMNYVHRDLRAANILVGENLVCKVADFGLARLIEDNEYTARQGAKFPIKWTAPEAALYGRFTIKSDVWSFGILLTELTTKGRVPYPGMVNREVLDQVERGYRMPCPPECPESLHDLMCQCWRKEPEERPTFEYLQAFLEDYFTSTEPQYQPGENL

STK33 = STK33 (Homo sapiens, UniProt Q9BYT3); test: Kinase profiling; assay type: biochemical
TGFBR1 = TGFBR1 (Homo sapiens, UniProt P36897); test: Kinase profiling; assay type: biochemical
Chain of TGFBR1 (P36897 34-503): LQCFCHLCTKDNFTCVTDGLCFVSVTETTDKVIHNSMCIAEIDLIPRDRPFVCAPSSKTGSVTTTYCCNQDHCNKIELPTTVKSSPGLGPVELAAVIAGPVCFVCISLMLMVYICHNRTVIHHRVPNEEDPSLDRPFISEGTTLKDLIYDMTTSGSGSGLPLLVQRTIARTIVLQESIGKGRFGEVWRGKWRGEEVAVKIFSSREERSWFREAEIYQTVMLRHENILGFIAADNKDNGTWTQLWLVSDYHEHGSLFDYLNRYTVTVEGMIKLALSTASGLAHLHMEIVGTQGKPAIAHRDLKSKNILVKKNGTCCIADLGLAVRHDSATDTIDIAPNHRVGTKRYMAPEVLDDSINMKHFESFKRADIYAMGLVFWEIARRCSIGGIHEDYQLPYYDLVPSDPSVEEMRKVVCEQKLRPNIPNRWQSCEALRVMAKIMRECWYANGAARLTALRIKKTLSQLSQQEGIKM

YES1 = YES1 (Homo sapiens, UniProt P07947); test: Kinase profiling; assay type: biochemical
BTK [4] = target: T2, BTK; test: Kinase assay, IC50 curve; assay type: biochemical; set-up: BTK (amino acids 2–659); His6 (N); made in house; host or cells: Sf9 insect cells; conditions: read-out: IC50 against BTK

SMILES: COc1cc(Nc2c(C#N)cnc3cc(OCCCN4CCN(C)CC4)c(OC)cc23)c(Cl)cc1Cl [Bosutinib, bosutinib]
- IC50 (SIK3): 18 nM
- LPS-stimulated CREB-dependent gene transcription including IL-10 and Nurr77 [1]: little effect
- Expression of FIZZ, YM1 and Mgl2 [2]: without affecting the expression
- remaining activity at 0.1 µM (BRK; 0.1 µM): 88 ± 11%
- remaining activity at 1 µM (BRK; 1 µM): 48%
- remaining activity at 0.1 µM (BTK [3]; 0.1 µM): 1%
- remaining activity at 1 µM (BTK [3]; 1 µM): 1%
- remaining activity at 0.1 µM (EPH-B2; 0.1 µM): 1 ± 1%
- remaining activity at 1 µM (EPH-B2; 1 µM): 0%
- remaining activity at 0.1 µM (EPH-B4; 0.1 µM): 10%
- remaining activity at 1 µM (EPH-B4; 1 µM): 2%
- remaining activity at 0.1 µM (Lck; 0.1 µM): 1%
- remaining activity at 1 µM (Lck; 1 µM): 1%
- remaining activity at 0.1 µM (MPSK1): 117 ± 15%
- remaining activity at 1 µM (MPSK1): 110 ± 11%
- remaining activity at 0.1 µM (PHK; 0.1 µM): 55%
- remaining activity at 1 µM (PHK; 1 µM): 12%
- remaining activity at 0.1 µM (PKD1): 89 ± 2%
- remaining activity at 0.1 µM (PLK1): 97 ± 12%
- remaining activity at 1 µM (PLK1; 1 µM): 74 ± 6%
- remaining activity at 0.1 µM (Src; 0.1 µM): 1%
- remaining activity at 1 µM (Src; 1 µM): 1%
- remaining activity at 0.1 µM (STK33; 0.1 µM): 34%
- remaining activity at 1 µM (STK33; 1 µM): 17 ± 4%
- remaining activity at 0.1 µM (TGFBR1; 0.1 µM): 87 ± 14%
- remaining activity at 1 µM (TGFBR1; 1 µM): 101 ± 6%
- remaining activity at 0.1 µM (YES1; 0.1 µM): 2 ± 1%
- remaining activity at 1 µM (YES1; 1 µM): 1%
- Activity of Bcr-Abl, Src and Btk in primary mouse macrophages (Bcr-Abl, Src and Btk): completely blocking
- IC50 (BTK [4]): 15 nM

SMILES: Cc1nc(Nc2ncc(C(=O)Nc3c(C)cccc3Cl)s2)cc(N2CCN(CCO)CC2)n1 [Dasatinib]
- LPS-stimulated CREB-dependent gene transcription including IL-10 and Nurr77 [1]: little effect
- Expression of FIZZ, YM1 and Mgl2 [2]: without affecting the expression
- remaining activity at 0.1 µM (MPSK1): 101 ± 5%
- remaining activity at 1 µM (MPSK1): 123 ± 1%
- remaining activity at 0.1 µM (PLK1): 133 ± 18%
